Experimental findings from ChEMBL document CHEMBL3393042, “Synthesis and photophysical characterization of quasi push-pull dicyanodibenzodioxins and their anti-tumor activity against glioma cell line C6” (Bioorg Med Chem Lett, 2015) are described below.

Activity calls are given as the source filed them. No cut-off for these calls is given here.

The test system of this assay is C6. The experiment in a line: Cytotoxicity against rat C6 cells assessed as cell viability at 2 to 50 uM after 24 hrs by MTT assay. Type of assay: functional, cell-based.
For `N#Cc1cc2c(cc1C#N)Oc1ccccc1O2`, the outcome was Active.

With `N#Cc1cc2c(cc1C#N)Oc1cc(Br)ccc1O2`, the result was Active.

Take `N#Cc1cc2c(cc1C#N)Oc1cc([N+](=O)[O-])ccc1O2`: the outcome was inactive.
